Laboratory results reported in patent US20080119492A1, “Compositions and methods for treating cancer and other diseases characterized by abnormal cell proliferation” (priority 2005, published 2008).

How the values were obtained:
GBM tumor cells = experiment: Clonogenic survival, ThAcr2 combined with radiation, schedule of combination; format: cell-based, human
Method: (§1) To explore the effect of ThAcr2 in combination with ionizing radiation on GBM cells, clonogenic survival of SF 763 and SF 767 cells was analyzed. Although both cell lines were radio-resistant, the surviving fraction after 2 Gy was greater in SF 763 (80%) than in SF 767 cells (56%), indicating stronger resistance of SF 763 cells to radiation.
(§2) For combination experiments, non-toxic sub-apoptotic ThAcr2 concentrations of 0.5 and 1 μM were utilized. […] SF 763 cells were treated with […] ThAcr2 for 7 days, then replated and irradiated with a 3 Gy-dose of X-rays. SF 767 cells were treated with 0.5 μM ThAcr2 for 14 days, then replated and irradiated with a 2-Gy dose. […] The combination of ThAcr2 with radiation was additive when the ThAcr2 treatment started after irradiation.

[1] = system: GBM cell lines SF 763 and SF 767; experiment: Short-term (3 days) cell viability; format: cell-based, human; details: 0.5, 1 and 2 μM
SF 763 cells [2] = experiment: Clonogenic survival, ThAcr2 combined with X-rays; format: cell-based, human; details: 1 μM ThAcr2 for 7 days, replated, 3 Gy X-rays, corrected for ThAcr2 alone
Method: as §1, §2

SF 767 cells [3] = experiment: Clonogenic survival, ThAcr2 combined with X-rays; format: cell-based, human; details: 0.5 μM ThAcr2 for 14 days, replated, 2-Gy X-rays, corrected for ThAcr2 alone
Method: as §1, §2

SF 763 cells [4] = experiment: Growth of GBM cells in continuous 14-day culture with ThAcr2; format: cell-based, human; details: 0.5, 1 and 2 μM ThAcr2, continuous 14 days, more pronounced effect on SF 763
Method: (§3) GBM cells were maintained in culture for 14 days in the presence of 0.5, 1 and 2 μM ThAcr2.

SF 767 cells [5] = experiment: as above; format: cell-based, human; details: 0.5, 1 and 2 μM ThAcr2, continuous 14 days
Method: as §3

glioblastoma cells = experiment: Administration of compositions comprising ThAcr2 to glioblastoma cells; format: cell-based
GBM cells = experiment: Flow cytometry of cell cycle distribution and apoptosis (annexin-propidium iodide); format: cell-based, human; details: 7 days
Method: Using flow cytometry, cell cycle distribution and apoptosis in cells treated for 7 days with 0.5-2 μM ThAcr2 were examined. […] The percentage of cells in the G2/M phase increased from 10% to 20%. The annexin-propidium iodide (apoptotic) fraction was essentially identical (9-11%) in control and treated cells at lower ThAcr2 concentrations ([…]) but increased to 34% in cells treated with 2 μM ThAcr2.

SF 763 cell = experiment: Cytogenetic analysis of telomere fusions; format: cell-based, human
Method: The fusion frequency was 0.3 in untreated cells and 1.6 in ThAcr2-treated cells.
(§4) The effects of 1 μM ThAcr2 on telomere and telomerase after 7 and 14 days of treatment were evaluated.

[6] = system: telomere and telomerase (hTERT) in GBM cell lines SF 763 and SF 767; experiment: Effects on telomere and telomerase (telomere length, hTERT expression by real-time RT-PCR); format: cell-based, human; details: 1 μM ThAcr2, 7 and 14 days
Method: as §4

SF 763 cells [7] = experiment: Long-term (50 days) treatment with ThAcr2; format: cell-based, human; details: from day 30
Method: (§5) To further investigate the tumor-growth inhibition effect of ThAcr2 as a single agent, the GBM cells were exposed to 1 μM ThAcr2 for 50 days.

SF 767 cells [8] = experiment: Long-term (50 days) treatment with ThAcr2; format: cell-based, human; details: 1 μM ThAcr2 for 50 days, from day 30
Method: as §5

[9] = system: model guanine quadruplexes inspired from human telomeres; experiment: Affinity for guanine quadruplexes; format: binding; details: 1:2 mixture of mono- and di-cation species
Description: U-shaped molecules holding two potentially intercalating units 7 Å apart have been designed to have a moderate affinity for duplex DNA on the basis of the nearest neighbor exclusion principle but may display strong binding affinity for other architectures such as guanine quadruplexes.

4,6-bis-(6-(10-N-methylacrid-9-ylinium)pyridin-2-yl)-pyrimidine bistriflate [ThAcr2]
clonogenic survival with combination therapy versus radiation alone (GBM tumor cells; FIG. 4, P<0.001): markedly decreased
combination of ThAcr2 with radiation (GBM tumor cells; ThAcr2 treatment started after irradiation): additive
combination of ThAcr2 with radiation (GBM tumor cells; cells continuously treated before and after irradiation): supra-additive or had a synergistic effect
short-term cell viability [1]: non-toxic
reduction of surviving fraction of tumor cells (SF 763 cells [2]): 2.5 fold
reduction of surviving fraction of tumor cells (SF 767 cells [3]): 2.3 fold
tumor cell growth (SF 763 cells [4]): inhibited tumor cell growth
tumor cell growth (SF 767 cells [5]): inhibited tumor cell growth
glioblastoma cells after administration (glioblastoma cells): reduction of glioblastoma cells
annexin-propidium iodide (apoptotic) fraction (GBM cells; 2 μM ThAcr2): 34%
percentage of cells in the G2/M phase (GBM cells; 0.5-2 μM ThAcr2, untreated 10%): 20%
annexin-propidium iodide (apoptotic) fraction (GBM cells; lower ThAcr2 concentrations (0.5 and 1 μM), identical in control): 9-11%
telomere fusions (cytogenetic analysis) (SF 763 cell; 1 μM ThAcr2, day 7): multiple telomere fusions
telomere fusion frequency (SF 763 cell; SF 763 metaphase, FIG. 3, untreated cells 0.3): 1.6
telomere length [6]: did not reduce telomere length
rate of cell proliferation after long-term treatment (SF 763 cells [7]; 1 μM ThAcr2 for 50 days): increase in the rate of cell proliferation
overexpression of telomerase (SF 763 cells [7]; 1 μM ThAcr2 long-term): up to 7 fold
rate of cell proliferation after long-term treatment (SF 767 cells [8]): increase in the rate of cell proliferation
affinity for model guanine quadruplexes [9]: strong affinity
